Assay results: PMC9851907, “A single 2′-O-methylation of ribosomal RNA gates assembly of a functional ribosome” (Nature Structural & Molecular Biology, 2022)

Molecular target: T1, Nog2 (Nog2-3xFLAG) (Saccharomyces cerevisiae, UniProt P53742)
T1 construct: full-length, genomic C-terminal 3xFLAG-6xHis tag (kept); native anti-FLAG purification from yeast within pre-60S particle with unmodified G2922 (spb1-D52A cells)
Assay: cryo-EM structure, […] A
Type: binding
Conditions: Mg2+; GTPase active site; nucleotide co-purified; pre-60S with unmethylated G2922; Table 1 lists only Mg2+ as ligand

SMILES: Nc1nc2c(ncn2[C@@H]2O[C@H](COP(=O)(O)OP(=O)(O)O)[C@@H](O)[C@H]2O)c(=O)[nH]1 [GDP]
- cryo-EM structure, 2.9 A: switch I and switch II (motifs G2 and G3) are apparently ordered around GDP
